The target in data set [1] is T1, DENV2 protease (Dengue virus type 2, UniProt P14340). The data set is described as follows: In vitro protease assay with fluorogenic substrate Bz-Nle-Lys-Arg-Arg-AMC. It counts as biochemical, dengue virus serotype 2 (DENV2). As to conditions: for Hill-Slope DENV 2 Pro: Hill slope of IC50 curve.
A further data set concerns the target WNV protease (West Nile virus, UniProt Q9Q6P4). Described as above. As to conditions: for Hill-slope WNV Pro: Hill slope of IC50 curve; for inhibition at 25 µM: read-out: Inhibition of WNVpro (%) At 25 μM. The format is biochemical.
Another data set has as its target DENV 1 Pro (Dengue virus type 1, UniProt P17763). The description is as above. The format is biochemical, dengue virus serotype 1 (DENV1). As to conditions: for Hill-slope DENV 1 Pro: Hill slope of IC50 curve.
The next data set addresses DENV 3 Pro (Dengue virus type 3, UniProt P27915). The data set is described as above. The format is biochemical, dengue virus serotype 3 (DENV3). As to conditions: for Hill-slope DENV 3 Pro: Hill slope of IC50 curve.
The target of the next data set is DENV 4 Pro (Dengue virus type 4, UniProt P09866). The description is as above. It counts as biochemical, dengue virus serotype 4 (DENV4). As to conditions: for Hill-slope DENV 4 Pro: Hill slope of IC50 curve.
In data set [2] the target is T1, DENV2 protease. Put plainly: Determination of Ki and kinetics of inhibition. It counts as biochemical, dengue virus serotype 2 (DENV2). Conditions: for Mode of inhibition (Lineweaver-Burk plots): DENV2 protease.
In another data set the test system is DENV2 replicon. Put plainly: Renilla luciferase reporter replicon assay in stable BHK-21/DENV2 replicon cells. It counts as cell-based. A general note: Reporter assays use an easily measured gene product as a stand-in for the process of interest.
The test system of another data set is BHK-21 cells. The data set is described as follows: Cytotoxicity to BHK-21 cells. It counts as cell-based. Conditions: for CC50: ~24 h, CCK-8.
In a further data set the test system is DENV2. The data set is described as follows: Viral RNA copy number by qRT-PCR in DENV2-infected BHK-21 cells. It counts as cell-based. Conditions: 24 h. On the technique in general: Quantitative PCR measures a nucleic acid by following its amplification.
The target of data set [3] is T1, DENV2 protease. Put plainly: Tryptophan. The format is binding, dengue virus serotype 2 (DENV2). Conditions: for Competition with BPTI in fluorescence quenching: 50 μM compound and 10 μM BPTI; for Quenching of tryptophan fluorescence of DENV2 protease: 0.09-50 μM inhibitor, 2 μM protease.
The target of a further data set is WNVpro. As to conditions: read-out: Ki of BPTI against WNVpro; ref Aleshin et al., 2007; cited from earlier work.
The target in another data set is DENV2pro. Conditions: read-out: Ki of BPTI against DENV2pro; ref Mueller et al., 2007; cited from earlier work.

Read-outs that look alike come from different tables or passages of the source.

Chain of DENV 4 Pro (P09866 1475-1652): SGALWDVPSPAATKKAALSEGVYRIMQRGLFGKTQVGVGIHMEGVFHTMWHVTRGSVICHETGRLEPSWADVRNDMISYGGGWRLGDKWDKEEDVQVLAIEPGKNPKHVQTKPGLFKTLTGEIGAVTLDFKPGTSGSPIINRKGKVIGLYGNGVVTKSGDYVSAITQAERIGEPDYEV
Chain of DENV 3 Pro (P27915 1474-1651): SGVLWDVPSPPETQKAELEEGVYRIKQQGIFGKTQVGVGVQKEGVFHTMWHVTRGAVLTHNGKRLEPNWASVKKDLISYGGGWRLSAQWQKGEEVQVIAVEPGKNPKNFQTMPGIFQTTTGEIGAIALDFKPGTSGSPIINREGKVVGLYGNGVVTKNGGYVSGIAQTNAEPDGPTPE
Chain of WNV protease (Q9Q6P4 1428-1467): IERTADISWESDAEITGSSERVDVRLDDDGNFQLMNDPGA
Chain of WNV protease (Q9Q6P4 1506-1683): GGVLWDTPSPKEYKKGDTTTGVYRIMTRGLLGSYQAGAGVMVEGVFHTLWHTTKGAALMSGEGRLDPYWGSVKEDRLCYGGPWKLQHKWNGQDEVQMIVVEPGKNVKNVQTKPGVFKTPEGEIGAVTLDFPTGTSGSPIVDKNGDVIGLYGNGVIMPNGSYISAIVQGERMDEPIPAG
T1 sequence (P14340 1476-1653): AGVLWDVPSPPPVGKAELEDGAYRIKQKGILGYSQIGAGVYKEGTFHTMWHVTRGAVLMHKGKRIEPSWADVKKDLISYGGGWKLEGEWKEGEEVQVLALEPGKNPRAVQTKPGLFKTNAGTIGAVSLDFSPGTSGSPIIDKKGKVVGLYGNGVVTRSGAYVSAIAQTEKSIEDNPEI
Chain of DENV 1 Pro (P17763 1394-1445, looked up, natural form): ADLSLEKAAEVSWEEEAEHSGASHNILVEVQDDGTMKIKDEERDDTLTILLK
Chain of DENV 1 Pro (P17763 1476-1660): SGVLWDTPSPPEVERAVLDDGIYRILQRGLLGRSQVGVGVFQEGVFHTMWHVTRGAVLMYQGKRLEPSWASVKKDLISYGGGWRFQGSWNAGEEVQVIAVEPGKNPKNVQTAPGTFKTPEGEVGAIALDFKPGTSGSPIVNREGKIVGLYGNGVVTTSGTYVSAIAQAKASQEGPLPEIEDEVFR

By IC50 is commonly meant the concentration that inhibits the measured activity by half. As a reminder, the inhibition is the relative decrease from the control value, in per cent. One may read the Ki as the equilibrium dissociation constant of an inhibitor or competing ligand from its target. A word on the EC50: it is the concentration needed to bring the measured effect to its halfway point. What is called CC50 is the concentration giving 50% cytotoxicity. A higher CC50 goes with lower toxicity to the cells. Take `Cc1ccc(C(=O)c2cc(O)c(O)c([N+](=O)[O-])c2)cc1` [Compound F, Tolcapone]: on DENV2 protease [1], the IC50 stood at 0.98 ± 0.06 µM and the “Hill-Slope DENV 2 Pro” value is given as 1.51±0.07. In addition, on WNV protease, the IC50 is 0.7 ± 0.04 µM, the “Hill-slope WNV Pro” value was 1.58±0.05 and the inhibition at 25 µM is 95%. On DENV 1 Pro, the half-inhibitory concentration (IC50) worked out at 1.15 ± 0.1 µM and the “Hill-slope DENV 1 Pro” value came out at 1.26±0.10. For the same molecule, the “Hill-slope DENV 3 Pro” value at DENV 3 Pro came to 1.60±0.08. Also, on DENV 4 Pro, the IC50 stood at 0.64 ± 0.03 µM and the “Hill-slope DENV 4 Pro” value was found to be 1.45±0.05. At DENV2 protease [2], affinity was put at a Ki of 0.22 ± 0.03 µM and the “Mode of inhibition (Lineweaver-Burk plots)” value is given as “competitive inhibition”. For the same molecule, in the data set with DENV2 replicon (Dengue virus, DENV2, BHK-21, 24 h, read-out: EC50 (μM) DENV2 Replicon), the EC50 was 2.29 ± 0.3 µM. Also, in the data set on DENV2 replicon (screened at 5, 10 and 25 μM vs 1% DMSO control), the “Inhibition of DENV2 replicon replication” value was “inhibit DENV2 replication”. In addition, the CC50 in the data set on BHK-21 cells was found to be 29.2 µM. Besides, in the data set on DENV2 (2 μM compound), the “Inhibition of DENV2 viral RNA (qRT-PCR) vs DMSO control” value (“Inhibition … vs DMSO control” below) was “good inhibition”. For the same molecule, at DENV2 protease [3], the “Competition with BPTI in fluorescence quenching” value is listed as “did not compete with BPTI” and the “Quenching of tryptophan fluorescence of DENV2 protease” value (from here on “Quenching … of DENV2 protease”) is recorded as “quenched tryptophan fluorescence in a dose dependent manner”.

For `Cc1ccc(C(=O)Nc2ccc(S(=O)(=O)O)c3cc(S(=O)(=O)O)cc(S(=O)(=O)O)c23)cc1NC(=O)c1cccc(NC(=O)Nc2cccc(C(=O)Nc3cc(C(=O)Nc4ccc(S(=O)(=O)O)c5cc(S(=O)(=O)O)cc(S(=O)(=O)O)c45)ccc3C)c2)c1` [Compound H, Suramin], at DENV2 protease [1], the IC50 is 2.66 ± 0.19 µM and the “Hill-Slope DENV 2 Pro” value worked out at 0.97±0.04. In addition, the inhibition at 10 µM on DENV2 protease [1] (read-out: Inhibition of DENV2pro (%) At 10 μM) turned out to be 72%. Moreover, at DENV2 protease [1] (read-out: Inhibition of DENV2pro (%) At 25 μM), the inhibition at 25 µM turned out to be 85%. Also, at WNV protease, it took 3.24 ± 0.11 µM to reach half-maximal inhibition (IC50), the “Hill-slope WNV Pro” value is listed as 1.29±0.03 and the inhibition at 25 µM is 73%. In addition, at WNV protease (read-out: Inhibition of WNVpro (%) At 10 μM), the inhibition at 10 µM was 58%. Besides, at DENV 1 Pro, the IC50 amounted to 2.76 ± 0.25 µM and the “Hill-slope DENV 1 Pro” value stood at 0.92±0.05. Besides, on DENV 3 Pro, it took 3.25 ± 0.18 µM to reach half-maximal inhibition (IC50) and the “Hill-slope DENV 3 Pro” value was 1.05±0.04. In addition, at DENV 4 Pro, it took 3.73 ± 0.14 µM to reach half-maximal inhibition (IC50) and the “Hill-slope DENV 4 Pro” value came to 1.25±0.12. Moreover, the Ki on DENV2 protease [2] turned out to be 0.87 ± 0.14 µM. Besides, the “Cytotoxicity at the highest concentration tested” value in the data set on BHK-21 cells (~ 100 μM, 24 h) was “did not exhibit any cytotoxicity”. Moreover, the “Inhibition … vs DMSO control” value with DENV2 (10 μM compound) was “good inhibition”. The “Quenching … of DENV2 protease” value at DENV2 protease [3] is “failed to quench the tryptophan fluorescence”.

For Tannic acid [Compound G], the “Inhibition of DENV2pro (%) At 10 μM” value on DENV2 protease [1] (10 μM compound) worked out at 99%. Also, the “Inhibition of DENV2pro (%) At 25 μM” value at DENV2 protease [1] (25 μM compound) came out at 101%. Further, at DENV2 protease [1], the “Hill-Slope DENV 2 Pro” value worked out at 1.60±0.07. In addition, the “Inhibition of WNVpro (%) At 10 μM” value on WNV protease (10 μM compound) is 98%. Moreover, the “Inhibition of WNVpro (%) At 25 μM” value at WNV protease (25 μM compound) turned out to be 96%. The “Hill-slope WNV Pro” value at WNV protease was determined as 0.88±0.05. The half-maximal inhibitory concentration (IC50) on WNV protease (read-out: IC50 WNV Pro, mean of duplicate experiments ± SEM) is 0.12 ± 0.01 µM. Moreover, the “Hill-slope DENV 1 Pro” value at DENV 1 Pro came to 1.79±0.09. For the same molecule, on DENV 3 Pro, the “Hill-slope DENV 3 Pro” value was 1.53±0.06. For the same molecule, the “Hill-slope DENV 4 Pro” value at DENV 4 Pro is given as 0.79±0.03. Besides, the “Mode of inhibition (Lineweaver-Burk plots)” value at DENV2 protease [2] is recorded as “competitive inhibition”. For the same molecule, at DENV2 protease [2] (competitive inhibition model, 20 nM DENV2 protease), the Ki came out at 0.34 ± 0.05 µM. In the data set with BHK-21 cells, the CC50 came out at 68.1 µM. The “Inhibition … vs DMSO control” value in the data set on DENV2 (2 μM compound) is on record as “good inhibition”. Besides, at DENV2 protease [3], the “Competition with BPTI in fluorescence quenching” value was “partially restore the fluorescence” and the “Quenching … of DENV2 protease” value is “quenched tryptophan fluorescence in a dose dependent manner”.

On to “Bovine pancreatic trypsin inhibitor [BPTI]”, for which the Ki on WNVpro was 0.024 µM; at DENV2pro, 0.026 µM.

Source of the values: PMC5065773 (Antiviral research, 2016).
